Test results: ChEMBL document CHEMBL5346873, “Strategic modification of low-activity natural antimicrobial peptides confers antibacterial potential in vitro and in vivo” (Eur J Med Chem, 2023)
The source made the active and inactive calls. The calls are words filed in the database; no cut-off is given here.

Assays:
Klebsiella pneumoniae [1] = experiment: Antibacterial activity against NDM Klebsiella pneumoniae incubated for 16 to 20 hrs; format: functional; conditions: time 16-20 hrs
[2] = Dermal toxicity in BALB/c mouse assessed as morphological changes at 125 mg/kg, TOPp measured after 48 hrs; format: organism-based; conditions: in vivo, topical_or_ocular
Streptococcus agalactiae [3] = experiment: Antibacterial activity against Streptococcus agalactiae incubated for 16 to 20 hrs; format: functional; conditions: time 16-20 hrs
Vibrio vulnificus [4] = experiment: Antibiofilm activity against Vibrio vulnificus 204 assessed as inhibition of biofilm formation at 50 to 100 ug/ml incubated for 24 hrs by crystal violet staining based assay; format: functional, organism-based; conditions: dose 50-100 µg/ml
Vibrio vulnificus [5] = experiment: Synergistic antibacterial activity against Vibrio vulnificus in presence of meropenem by checkerboard microtiter plate assay; format: functional
Acinetobacter baumannii [6] = experiment: Bactericidal activity against Acinetobacter baumannii incubated for overnight; format: functional
Edwardsiella tarda = experiment: Bactericidal activity against Edwardsiella tarda incubated overnight; format: functional
Klebsiella pneumoniae [7] = experiment: Bactericidal activity against NDM Klebsiella pneumoniae incubated overnight; format: functional
Vibrio vulnificus [8] = experiment: Antibacterial activity against Vibrio vulnificus 204 assessed as induction of resistance development by measuring fold increase in MIC measured after 15 passages; format: functional
Vibrio vulnificus [9] = experiment: Antibiofilm activity against Vibrio vulnificus V1 assessed as inhibition of biofilm formation at 25 ug/ml incubated for 24 hrs by crystal violet staining based assay; format: functional, organism-based; conditions: dose 25.0 µg/ml
Klebsiella aerogenes [10] = experiment: Synergistic antibacterial activity against Enterobacter aerogenes in presence of meropenem by checkerboard microtiter plate assay; format: functional
Vibrio vulnificus [11] = experiment: Antibacterial activity against Vibrio vulnificus treated with preheated compounds; format: functional, organism-based
Acinetobacter baumannii [12] = experiment: Additive antibacterial activity against Acinetobacter baumannii assessed as fractional inhibitory concentration in presence of meropenem by checkerboard microtiter plate assay; format: functional
Streptococcus agalactiae [13] = experiment: Synergistic antibacterial activity against Streptococcus agalactiae assessed as meropenem MIC by checkerboard microtiter plate assay; format: functional
Enterococcus faecalis = experiment: Antibacterial activity against Enterococcus faecalis incubated for 16 to 20 hrs; format: functional; conditions: time 16-20 hrs
Vibrio vulnificus [14] = experiment: Antibiofilm activity against Vibrio vulnificus V2 assessed as inhibition of biofilm formation at 25 ug/ml incubated for 24 hrs by crystal violet staining based assay; format: functional, organism-based; conditions: dose 25.0 µg/ml
Streptococcus iniae [15] = experiment: Bactericidal activity against Streptococcus iniae incubated overnight; format: functional
Vibrio vulnificus [16] = experiment: Antibacterial activity against Vibrio vulnificus in presence of proteinase K; format: functional, organism-based
Vibrio vulnificus [17] = experiment: Bactericidal activity against Vibrio vulnificus 204 incubated overnight; format: functional
Vibrio vulnificus [18] = experiment: Antibiofilm activity against Vibrio vulnificus V3 assessed as inhibition of biofilm formation at 50 to 100 ug/ml incubated for 24 hrs by crystal violet staining based assay; format: functional, organism-based; conditions: dose 50-100 µg/ml
Vibrio vulnificus [19] = experiment: Antibacterial activity against Vibrio vulnificus in presence of 10 ug/ml proteinase K; format: functional, organism-based
Enterococcus faecium = experiment: Bactericidal activity against Enterococcus faecium incubated overnight; format: functional
Streptococcus agalactiae [20] = experiment: Synergistic antibacterial activity against Streptococcus agalactiae assessed as doxycycline MIC by checkerboard microtiter plate assay; format: functional
Cell membrane [21] = experiment: Induction of outer membrane lysis in Vibrio vulnificus at 100 ug/ml by NPN-dye based fluorescence analysis; format: subcellular; conditions: dose 100.0 µg/ml
Acinetobacter baumannii [22] = experiment: Additive antibacterial activity against Acinetobacter baumannii assessed as meropenem MIC by checkerboard microtiter plate assay; format: functional
Pseudomonas aeruginosa [23] = experiment: Additive antibacterial activity against Pseudomonas aeruginosa assessed as fractional inhibitory concentration in presence of meropenem by checkerboard microtiter plate assay; format: functional
Nakaseomyces glabratus = experiment: Fungicidal activity against Candida glabrata incubated overnight; format: functional
Vibrio vulnificus [24] = experiment: Antibiofilm activity against Vibrio vulnificus V3 assessed as inhibition of biofilm formation at 25 ug/ml incubated for 24 hrs by crystal violet staining based assay; format: functional, organism-based; conditions: dose 25.0 µg/ml
Salmonella typhimurium = experiment: Antibacterial activity against Salmonella typhimurium incubated for 16 to 20 hrs; format: functional, Salmonella enterica subsp. enterica serovar Typhimurium; conditions: Salmonella enterica; time 16-20 hrs
[25] = tested on: Staphylococcus haemolyticus; experiment: Bactericidal activity against Staphylococcus haemolyticus incubated overnight; format: functional
Vibrio vulnificus [26] = experiment: Synergistic antibacterial activity against Vibrio vulnificus assessed as fractional inhibitory concentration in presence of meropenem by checkerboard microtiter plate assay; format: functional
Vibrio alginolyticus [27] = experiment: Bactericidal activity against Vibrio alginolyticus incubated overnight; format: functional
Vibrio vulnificus [28] = experiment: Antibacterial activity against Vibrio vulnificus 204 assessed as LPS neutralization at 0.25 to 2 times MIC measured after 1 hr by LAL assay; format: functional, organism-based
Klebsiella oxytoca = experiment: Bactericidal activity against Klebsiella oxytoca incubated overnight; format: functional
Vibrio alginolyticus [29] = experiment: Antibacterial activity against Vibrio alginolyticus incubated for 16 to 20 hrs; format: functional; conditions: time 16-20 hrs
Escherichia coli = experiment: Synergistic antibacterial activity against Escherichia coli assessed as fractional inhibitory concentration in presence of meropenem by checkerboard microtiter plate assay; format: functional
Streptococcus agalactiae [30] = experiment: Synergistic antibacterial activity against Streptococcus agalactiae in presence of doxycycline by checkerboard microtiter plate assay; format: functional
Vibrio vulnificus [31] = experiment: Bactericidal activity against Vibrio vulnificus V3 incubated overnight; format: functional
Streptococcus iniae [32] = experiment: Synergistic antibacterial activity against Streptococcus iniae in presence of doxycycline by checkerboard microtiter plate assay; format: functional
Vibrio vulnificus [33] = experiment: Antibacterial activity against Vibrio vulnificus V1 incubated for 16 to 20 hrs; format: functional; conditions: time 16-20 hrs
Streptococcus agalactiae [34] = experiment: Synergistic antibacterial activity against Streptococcus agalactiae assessed as fractional inhibitory concentration in presence of meropenem by checkerboard microtiter plate assay; format: functional
Vibrio vulnificus [35] = experiment: Antibacterial activity against Vibrio vulnificus in presence of 0.1 ug/ml pepsin; format: functional, organism-based
Streptococcus agalactiae [36] = experiment: Bactericidal activity against Streptococcus agalactiae incubated overnight; format: functional
Vibrio vulnificus [37] = experiment: Antibacterial activity against Vibrio vulnificus 204 in presence of human serum; format: functional, organism-based
Acinetobacter baumannii [38] = experiment: Synergistic antibacterial activity against Acinetobacter baumannii assessed as fractional inhibitory concentration in presence of doxycycline by checkerboard microtiter plate assay; format: functional
Vibrio anguillarum = experiment: Antibacterial activity against Listonella anguillarum incubated for 16 to 20 hrs; format: functional; conditions: time 16-20 hrs
Acinetobacter baumannii [39] = experiment: Antibacterial activity against Acinetobacter baumannii; format: functional
Streptococcus agalactiae [40] = experiment: Synergistic antibacterial activity against Streptococcus agalactiae assessed as fractional inhibitory concentration in presence of doxycycline by checkerboard microtiter plate assay; format: functional
Klebsiella aerogenes [41] = experiment: Bactericidal activity against Enterobacter aerogenes incubated overnight; format: functional
Pseudomonas aeruginosa [42] = experiment: Antibacterial activity against Pseudomonas aeruginosa incubated for 16 to 20 hrs; format: functional; conditions: time 16-20 hrs
Vibrio vulnificus [43] = experiment: Antibacterial activity against Vibrio vulnificus in presence of 1 to 10 ug/ml pepsin; format: functional, organism-based
Cell membrane [44] = experiment: Induction of membrane lysis in Vibrio vulnificus at 1 time MIC incubated for 1 hr by TEM analysis; format: subcellular
Klebsiella pneumoniae [45] = experiment: Antibacterial activity against Klebsiella pneumoniae expressing NDM-1 in presence of human serum; format: functional, organism-based
Candida tropicalis = experiment: Fungicidal activity against Candida tropicalis incubated overnight; format: functional
Vibrio vulnificus [46] = experiment: Antibacterial activity against Vibrio vulnificus at pH 2 to 10; format: functional, organism-based
[47] = Hemolytic activity in human RBC at 100 ug/ml incubated for 1 hr; format: toxicity, cell-based, Erythrocyte; conditions: human red blood cells (erythrocytes), at 100 µg/mL, read-out: Activity
Vibrio vulnificus [48] = experiment: Antibacterial activity against Vibrio vulnificus in presence of pancreatin; format: functional, organism-based
Vibrio vulnificus [49] = experiment: Antibacterial activity against Vibrio vulnificus 204 incubated for 16 to 20 hrs; format: functional; conditions: time 16-20 hrs
Vibrio vulnificus [50] = experiment: Antibacterial activity against Vibrio vulnificus V2 incubated for 16 to 20 hrs; format: functional; conditions: time 16-20 hrs

## H-FKWKSVLKGVKGFVKGYF-OH
Klebsiella pneumoniae [1]
  MIC: 25 µg/mL
[2]
  Activity: Non-Toxic
Streptococcus agalactiae [3]
  MIC: 3.12 µg/mL
Vibrio vulnificus [4]
  Activity: Active
Vibrio vulnificus [5]
  MIC: 0.097 µg/mL
Acinetobacter baumannii [6]
  MBC: 3.12 µg/mL
Edwardsiella tarda
  MBC: 50 µg/mL
Klebsiella pneumoniae [7]
  MBC: 25 µg/mL
Vibrio vulnificus [8]
  fold change (FC): <2
Vibrio vulnificus [9]
  Activity: inactive
Klebsiella aerogenes [10]
  MIC: 0.195 µg/mL
Vibrio vulnificus [11]
  Activity: Active
Acinetobacter baumannii [12]
  FIC: 0.51
Streptococcus agalactiae [13]
  MIC: 0.002 µg/mL
Enterococcus faecalis
  MIC: 50 µg/mL
Vibrio vulnificus [14]
  Activity: inactive
Streptococcus iniae [15]
  MBC: < 1.56 µg/mL
Vibrio vulnificus [16]
  Activity: Active
Vibrio vulnificus [17]
  MBC: 6.25 µg/mL
Vibrio vulnificus [18]
  Activity: Active
Vibrio vulnificus [19]
  Activity: inactive
Enterococcus faecium
  MBC: > 100 µg/mL
Streptococcus agalactiae [20]
  MIC: 0.006 µg/mL
Cell membrane [21]
  Activity: Active
Acinetobacter baumannii [22]
  MIC: 0.195 µg/mL
Pseudomonas aeruginosa [23]
  FIC: 0.75
Nakaseomyces glabratus
  MFC: > 100 µg/mL
Vibrio vulnificus [24]
  Activity: inactive
Salmonella typhimurium
  MIC: 12.5 µg/mL
[25]
  MBC: < 1.56 µg/mL
Vibrio vulnificus [26]
  FIC: 0.14
Vibrio alginolyticus [27]
  MBC: 6.25 µg/mL
Vibrio vulnificus [28]
  Activity: Active
Klebsiella oxytoca
  MBC: 25 µg/mL
Vibrio alginolyticus [29]
  MIC: 3.12 µg/mL
Escherichia coli
  FIC: 0.07
Streptococcus agalactiae [30]
  MIC: 0.097 µg/mL
Vibrio vulnificus [31]
  MBC: 12.5 µg/mL
Streptococcus iniae [32]
  MIC: 0.024 µg/mL
Vibrio vulnificus [33]
  MIC: 12.5 µg/mL
Streptococcus agalactiae [34]
  FIC: 0.07
Vibrio vulnificus [35]
  Activity: Active
Streptococcus agalactiae [36]
  MBC: 3.12 µg/mL
Vibrio vulnificus [37]
  Activity: Active
Acinetobacter baumannii [38]
  FIC: 0.07
Vibrio anguillarum
  MIC: 100 µg/mL
Acinetobacter baumannii [39]
  MIC: 3.12 µg/mL
Streptococcus agalactiae [40]
  FIC: 0.14
Klebsiella aerogenes [41]
  MBC: 12.5 µg/mL
Pseudomonas aeruginosa [42]
  MIC: 25 µg/mL
Vibrio vulnificus [43]
  Activity: Active
Cell membrane [44]
  Activity: Active
Klebsiella pneumoniae [45]
  Activity: Active
Candida tropicalis
  MFC: 100 µg/mL
Vibrio vulnificus [46]
  Activity: Active
[47]
  hemolysis at 1 h, 100 ug/ml: 26.5%
Vibrio vulnificus [48]
  Activity: Active
Vibrio vulnificus [49]
  MIC: 6.25 µg/mL
Vibrio vulnificus [50]
  MIC: 12.5 µg/mL

## H-KKCIAKAILKKAKKLLKKLVNP-OH
Klebsiella pneumoniae [1]
  MIC: 25 µg/mL
[2]
  Activity: Non-Toxic
Streptococcus agalactiae [3]
  MIC: 3.12 µg/mL
Vibrio vulnificus [4]
  Activity: Active
Vibrio vulnificus [5]
  MIC: 0.195 µg/mL
Acinetobacter baumannii [6]
  MBC: 1.56 µg/mL
Edwardsiella tarda
  MBC: > 100 µg/mL
Klebsiella pneumoniae [7]
  MBC: 25 µg/mL
Vibrio vulnificus [8]
  fold change (FC): <2
Vibrio vulnificus [9]
  Activity: inactive
Klebsiella aerogenes [10]
  MIC: 0.097 µg/mL
Vibrio vulnificus [11]
  Activity: Active
Acinetobacter baumannii [12]
  FIC: 0.51
Streptococcus agalactiae [13]
  MIC: 0.002 µg/mL
Enterococcus faecalis
  MIC: 25 µg/mL
Vibrio vulnificus [14]
  Activity: inactive
Streptococcus iniae [15]
  MBC: < 1.56 µg/mL
Vibrio vulnificus [16]
  Activity: Active
Vibrio vulnificus [17]
  MBC: 6.25 µg/mL
Vibrio vulnificus [18]
  Activity: Active
Vibrio vulnificus [19]
  Activity: inactive
Enterococcus faecium
  MBC: > 100 µg/mL
Streptococcus agalactiae [20]
  MIC: 0.006 µg/mL
Cell membrane [21]
  Activity: Active
Acinetobacter baumannii [22]
  MIC: 0.195 µg/mL
Pseudomonas aeruginosa [23]
  FIC: 0.53
Nakaseomyces glabratus
  MFC: > 100 µg/mL
Vibrio vulnificus [24]
  Activity: inactive
Salmonella typhimurium
  MIC: 50 µg/mL
[25]
  MBC: < 1.56 µg/mL
Vibrio vulnificus [26]
  FIC: 0.14
Vibrio alginolyticus [27]
  MBC: 6.25 µg/mL
Vibrio vulnificus [28]
  Activity: inactive
Klebsiella oxytoca
  MBC: 50 µg/mL
Vibrio alginolyticus [29]
  MIC: 3.12 µg/mL
Escherichia coli
  FIC: 0.07
Streptococcus agalactiae [30]
  MIC: 0.195 µg/mL
Vibrio vulnificus [31]
  MBC: 12.5 µg/mL
Streptococcus iniae [32]
  MIC: 0.048 µg/mL
Vibrio vulnificus [33]
  MIC: 12.5 µg/mL
Streptococcus agalactiae [34]
  FIC: 0.07
Vibrio vulnificus [35]
  Activity: Active
Streptococcus agalactiae [36]
  MBC: 3.12 µg/mL
Vibrio vulnificus [37]
  Activity: Active
Acinetobacter baumannii [38]
  FIC: 0.07
Vibrio anguillarum
  MIC: 50 µg/mL
Acinetobacter baumannii [39]
  MIC: 3.12 µg/mL
Streptococcus agalactiae [40]
  FIC: 0.14
Klebsiella aerogenes [41]
  MBC: 12.5 µg/mL
Pseudomonas aeruginosa [42]
  MIC: 25 µg/mL
Vibrio vulnificus [43]
  Activity: Active
Cell membrane [44]
  Activity: Active
Klebsiella pneumoniae [45]
  Activity: Active
Candida tropicalis
  MFC: > 100 µg/mL
Vibrio vulnificus [46]
  Activity: Active
[47]
  hemolysis at 1 h, 100 ug/ml: 5.5%
Vibrio vulnificus [48]
  Activity: Active
Vibrio vulnificus [49]
  MIC: 6.25 µg/mL
Vibrio vulnificus [50]
  MIC: 12.5 µg/mL
